Results on 15 compounds are retold here after patent publication US20220183972A1, “NANOEMULSION HYDROPHOBIC […]” (VERTOSA INC., priority 2018, published 2022).

Like-named read-outs stand apart in the source and are kept apart here.

For series [1] the following is noted: cited from earlier work.
The nature of series [2]: Emulsion droplet size by DLS, Polyglyceryl-4 main surfactants. The following applies: 1 g cannabinoid oil, 0.7 g olive oil, 2.5 g Polyglyceryl-4 surfactant, 1.5 g sunflower lecithin, 40 g water, 80% amplitude. The series is classed as physicochemical.
The conditions of series [3]: cited from earlier work. The source holds these as a separate data set.

For Polyglyceryl-6 oleate, in series [1] (Table 1), the HLB is 9.

As to Span 60, the HLB in series [1] (Span surfactants, Example 10) is 4.7.

As to Vitamin E TPGS 2000, the HLB in series [1] (Table 1) was 16.5.

Tween 81: the HLB in series [1] (Table 1) is listed as 10.

Consider Span 80, for which the HLB in series [1] (Span surfactants, Example 10) was 4.3.

As for Vitamin E TPGS 4000, the HLB in series [1] (Table 1) was 18.1.

Turning to Polyglyceryl-4 Oleate, in series [2], the “final emulsion droplet average size” value came out at 506 nm.

In the case of Polyglyceryl-4 Caprate, the “final emulsion droplet average size” value in series [2] is listed as 365 nm.

Consider Vitamin E TPGS 300, for which the HLB in series [1] (Table 1) is on record as 8.2.

Span 120: in series [1] (Span surfactants, Example 10), the HLB is 4.7.

As for `CCCCCc1cc(O)c2c(c1)OC(C)(C)[C@@H]1CCC(C)=C[C@@H]21` [THC, Tetrahydrocannabinol], the THC absorbed in series [3] (upon eating cannabis) was 8-15%. In series [3] (upon smoking cannabis), the “THC absorbed by lung” value is listed as 2-45%.

Consider Span 40, for which the HLB in series [1] (Span surfactants, Example 10) was 6.7.

In the case of Polyglyceryl-4 Isostearate, the “final emulsion droplet average size” value in series [2] is 371 nm.

With Vitamin E TPGS 200, the HLB in series [1] (Table 1) is given as 6.3.

For Polyglyceryl-6 Stearate, the HLB in series [1] (Table 1) is on record as 9.
